Test results: ChEMBL document CHEMBL1201861, “Genomics of Drug Sensitity in Cancer screening data, Wellcome Trust Sanger Institute”

Assays:
Format in all cases: functional, cell-based
[1] = test system: DG-75; test: cells; conditions: Homo sapiens;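 also: growth inhibition of DG-75 cells, read out with a cell viability assay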
Description: SANGER: Inhibition of human DG-75 cell growth in a cell viability assay.

[2] = test system: DMS-153; test: cells; conditions: Homo sapiens
Description: SANGER: Inhibition of human DMS-153 cell growth in a cell viability assay.

[3] = test system: Daudi; test: cells; conditions: Homo sapiens;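 also: growth inhibition of Daudi cells, read out by a viability assay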
Description: SANGER: Inhibition of human Daudi cell growth in a cell viability assay.

[4] = test system: EB-3; test: cells; conditions: Homo sapiens;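 also: human EB-3 cells, growth inhibition read out via a cell viability assay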
Description: SANGER: Inhibition of human EB-3 cell growth in a cell viability assay.

[5] = test system: EB2; test: cells; conditions: Homo sapiens;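 also: growth inhibition of EB2 cells, read out with a cell viability assay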
Description: SANGER: Inhibition of human EB2 cell growth in a cell viability assay.

[6] = test system: ECC4; test: cells; conditions: Homo sapiens;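 also: growth inhibition of ECC4 cells, read out with a cell viability assay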
Description: SANGER: Inhibition of human ECC4 cell growth in a cell viability assay.

[7] = test system: EHEB; test: cells; conditions: Homo sapiens;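 also: growth inhibition of human EHEB cells, read out with a cell viability assay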
Description: SANGER: Inhibition of human EHEB cell growth in a cell viability assay.

[8] = test system: HCC1599; test: cells; conditions: Homo sapiens;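 also: growth inhibition of HCC1599 cells, read out in a cell viability assay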
Description: SANGER: Inhibition of human HCC1599 cell growth in a cell viability assay.

[9] = test system: IM-9; test: SANGER: Inhibition of human IM-9 cell growth in a cell viability assay.
[10] = test system: IMR-5; test: cells; conditions: Homo sapiens;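 also: growth inhibition of human IMR-5 cells, read out with a cell viability assay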
Description: SANGER: Inhibition of human IMR-5 cell growth in a cell viability assay.

[11] = test system: IST-SL2; test: cells; conditions: Homo sapiens;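 also: growth inhibition of human IST-SL2 cells, read out by a cell viability assay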
Description: SANGER: Inhibition of human IST-SL2 cell growth in a cell viability assay.

[12] = test system: K052; test: cells; conditions: Homo sapiens;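 also: Read-out from a cell viability assay, IC50 reflecting suppression of K052 cell growth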
Description: SANGER: Inhibition of human K052 cell growth in a cell viability assay.

[13] = test system: KMS-12-PE; test: cells; conditions: Homo sapiens;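 also: growth inhibition of human KMS-12-PE cells, measured with a cell viability assay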
Description: SANGER: Inhibition of human KMS-12-PE cell growth in a cell viability assay.

[14] = test system: LB647-SCLC; test: cells; conditions: Homo sapiens;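 also: cell growth inhibition, read out by a viability assay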
Description: SANGER: Inhibition of human LB647-SCLC cell growth in a cell viability assay.

[15] = test system: LC-1F; test: cells; conditions: Homo sapiens;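 also: growth inhibition of human LC-1F cells, read out with a cell viability assay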
Description: SANGER: Inhibition of human LC-1F cell growth in a cell viability assay.

[16] = test system: LP-1; test: cells; conditions: Homo sapiens;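 also: growth inhibition of human LP-1 cells, with the read-out taken from a cell viability assay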
Description: SANGER: Inhibition of human LP-1 cell growth in a cell viability assay.

[17] = test system: MC-CAR; test: cells; conditions: Homo sapiens;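 also: growth inhibition of the human MC-CAR cell line, read out by a cell viability assay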
Description: SANGER: Inhibition of human MC-CAR cell growth in a cell viability assay.

[18] = test system: MDA-MB-134-VI; test: cells; conditions: Homo sapiens
Description: SANGER: Inhibition of human MDA-MB-134-VI cell growth in a cell viability assay.

[19] = test system: NALM-6; test: cells; conditions: Homo sapiens;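 also: growth inhibition of NALM-6 cells, read out with a cell viability assay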
Description: SANGER: Inhibition of human NALM-6 cell growth in a cell viability assay.

[20] = test system: NCCIT; test: SANGER: Inhibition of human NCCIT cell growth in a cell viability assay.
[21] = test system: NCI-H1417; test: cells; conditions: Homo sapiens;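 also: human NCI-H1417 cells, growth inhibition determined with a cell viability readout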
Description: SANGER: Inhibition of human NCI-H1417 cell growth in a cell viability assay.

[22] = test system: NCI-H1694; test: cells; conditions: Homo sapiens;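 also: cell viability assay measuring inhibition of growth in human NCI-H1694 cells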
Description: SANGER: Inhibition of human NCI-H1694 cell growth in a cell viability assay.

[23] = test system: NCI-H187; test: cells; conditions: Homo sapiens;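 also: growth inhibition of NCI-H187 cells, read out as cell viability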
Description: SANGER: Inhibition of human NCI-H187 cell growth in a cell viability assay.

[24] = test system: NCI-H1882; test: cells; conditions: Homo sapiens
Description: SANGER: Inhibition of human NCI-H1882 cell growth in a cell viability assay.

[25] = test system: NCI-H2141; test: cells; conditions: Homo sapiens;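 also: growth inhibition of human NCI-H2141 cells, read out with a cell viability assay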
Description: SANGER: Inhibition of human NCI-H2141 cell growth in a cell viability assay.

[26] = test system: NCI-H2171; test: cells; conditions: Homo sapiens;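 also: growth inhibition of human NCI-H2171 cells, read out by a cell viability assay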
Description: SANGER: Inhibition of human NCI-H2171 cell growth in a cell viability assay.

[27] = test system: NCI-H322M; test: cells; conditions: Homo sapiens;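 also: cell viability assay measuring inhibition of growth of human NCI-H322M cells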
Description: SANGER: Inhibition of human NCI-H322M cell growth in a cell viability assay.

[28] = test system: NCI-H345; test: cells; conditions: Homo sapiens;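 also: growth inhibition of NCI-H345 cells measured with a cell viability assay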
Description: SANGER: Inhibition of human NCI-H345 cell growth in a cell viability assay.

[29] = test system: NCI-H64; test: cells; conditions: Homo sapiens;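 also: growth inhibition of NCI-H64 cells, read out with a cell viability assay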
Description: SANGER: Inhibition of human NCI-H64 cell growth in a cell viability assay.

[30] = test system: NCI-H719; test: cells; conditions: Homo sapiens;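 also: growth inhibition of the cultured cell line, read out with a viability assay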
Description: SANGER: Inhibition of human NCI-H719 cell growth in a cell viability assay.

[31] = test system: NCI-H748; test: cells; conditions: Homo sapiens;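 also: growth inhibition of NCI-H748 cells, measured by a cell viability assay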
Description: SANGER: Inhibition of human NCI-H748 cell growth in a cell viability assay.

[32] = test system: REH; test: cells; conditions: Homo sapiens;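 also: growth inhibition of REH cells determined with a cell viability read-out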
Description: SANGER: Inhibition of human REH cell growth in a cell viability assay.

[33] = test system: RPMI-6666; test: cells; conditions: Homo sapiens
Description: SANGER: Inhibition of human RPMI-6666 cell growth in a cell viability assay.

[34] = test system: SCLC-21H; test: cells; conditions: Homo sapiens;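 also: growth inhibition of cultured human SCLC-21H cells, read out with a cell viability assay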
Description: SANGER: Inhibition of human SCLC-21H cell growth in a cell viability assay.

[35] = test system: SK-MM-2; test: cells; conditions: Homo sapiens;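 also: growth inhibition of human SK-MM-2 cells, read out with a cell viability assay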
Description: SANGER: Inhibition of human SK-MM-2 cell growth in a cell viability assay.

[36] = test system: SR; test: cells; conditions: Homo sapiens
Description: SANGER: Inhibition of human SR cell growth in a cell viability assay.

[37] = test system: ST486; test: SANGER: Inhibition of human ST486 cell growth in a cell viability assay.
[38] = test system: ARH-77; test: cells; conditions: Homo sapiens;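 also: growth inhibition of ARH-77 cells, read out by a cell viability assay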
Description: SANGER: Inhibition of human ARH-77 cell growth in a cell viability assay.

[39] = test system: BC1 cell line; test: SANGER: Inhibition of human BC-1 cell growth in a cell viability assay.
[40] = test system: CAL-148; test: cells; conditions: Homo sapiens
Description: SANGER: Inhibition of human CAL-148 cell growth in a cell viability assay.

[41] = test system: THP-1; test: cells; conditions: Homo sapiens;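 also: growth inhibition of THP-1 cells, read out via a cell viability assay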
Description: SANGER: Inhibition of human THP-1 cell growth in a cell viability assay.

[42] = test system: TUR; test: cells; conditions: Homo sapiens;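 also: growth inhibition of human TUR cells, read out with a cell viability assay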
Description: SANGER: Inhibition of human TUR cell growth in a cell viability assay.

[43] = test system: MOLT-13; test: cells; conditions: Homo sapiens;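 also: IC50 for suppression of MOLT-13 cell growth, read out with a cell viability assay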
Description: SANGER: Inhibition of human MOLT-13 cell growth in a cell viability assay.

[44] = test system: NCI-H2227; test: cells; conditions: Homo sapiens;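 also: growth inhibition of the human cell line, read out with a cell viability assay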
Description: SANGER: Inhibition of human NCI-H2227 cell growth in a cell viability assay.

## Cc1cc(Nc2cc(N3CCN(C)CC3)nc(Sc3ccc(NC(=O)C4CC4)cc3)n2)n[nH]1 [TOZASERTIB]
[1]
  IC50: > 2 µM
[2]
  IC50: > 2 µM
[3]
  IC50: > 2 µM
[4]
  IC50: > 2 µM
[5]
  IC50: > 2 µM
[6]
  IC50: > 2 µM
[7]
  IC50: > 2 µM
[8]
  IC50: 0.809 µM
[9]
  IC50: > 2 µM
[10]
  IC50: 0.355 µM
[11]
  IC50: 0.72 µM
[12]
  IC50: 0.195 µM
[13]
  IC50: > 2 µM
[14]
  IC50: 0.215 µM
[15]
  IC50: > 2 µM
[16]
  IC50: > 2 µM
[17]
  IC50: > 2 µM
[18]
  IC50: > 2 µM
[19]
  IC50: 0.0255 µM
[20]
  IC50: > 2 µM
[21]
  IC50: > 2 µM
[22]
  IC50: > 2 µM
[23]
  IC50: 0.641 µM
[24]
  IC50: > 2 µM
[25]
  IC50: > 2 µM
[26]
  IC50: > 2 µM
[27]
  IC50: > 2 µM
[28]
  IC50: > 2 µM
[29]
  IC50: > 2 µM
[30]
  IC50: > 2 µM
[31]
  IC50: > 2 µM
[32]
  IC50: > 2 µM
[33]
  IC50: > 2 µM
[34]
  IC50: 1.97 µM
[35]
  IC50: > 2 µM
[36]
  IC50: 0.246 µM
[37]
  IC50: 0.231 µM
[38]
  IC50: > 2 µM
[39]
  IC50: > 2 µM
[40]
  IC50: > 2 µM
[41]
  IC50: > 2 µM
[42]
  IC50: > 2 µM

## CO[C@H]1C[C@@H]2CC[C@@H](C)[C@@](O)(O2)C(=O)C(=O)N2CCCC[C@H]2C(=O)O[C@H]([C@H](C)C[C@@H]2CC[C@@H](O)[C@H](OC)C2)CC(=O)[C@H](C)/C=C(\C)[C@@H](O)[C@@H](OC)C(=O)[C@H](C)C[C@H](C)/C=C/C=C/C=C/1C [SIROLIMUS]
[1]
  IC50: > 0.1 µM
[2]
  IC50: > 0.1 µM
[3]
  IC50: 0.000434 µM
[4]
  IC50: 0.0527 µM
[5]
  IC50: > 0.1 µM
[6]
  IC50: 0.0448 µM
[7]
  IC50: > 0.1 µM
[8]
  IC50: > 0.1 µM
[9]
  IC50: > 0.1 µM
[10]
  IC50: > 0.1 µM
[11]
  IC50: > 0.1 µM
[12]
  IC50: > 0.1 µM
[13]
  IC50: > 0.1 µM
[14]
  IC50: > 0.1 µM
[15]
  IC50: > 0.1 µM
[16]
  IC50: > 0.1 µM
[17]
  IC50: > 0.1 µM
[18]
  IC50: 0.044 µM
[19]
  IC50: > 0.1 µM
[20]
  IC50: > 0.1 µM
[21]
  IC50: > 0.1 µM
[22]
  IC50: > 0.1 µM
[23]
  IC50: > 0.1 µM
[24]
  IC50: > 0.1 µM
[25]
  IC50: > 0.1 µM
[26]
  IC50: > 0.1 µM
[27]
  IC50: > 0.1 µM
[28]
  IC50: > 0.1 µM
[29]
  IC50: > 0.1 µM
[30]
  IC50: > 0.1 µM
[31]
  IC50: > 0.1 µM
[32]
  IC50: > 0.1 µM
[33]
  IC50: 0.0244 µM
[34]
  IC50: > 0.1 µM
[35]
  IC50: > 0.1 µM
[36]
  IC50: 0.0114 µM
[37]
  IC50: > 0.1 µM
[38]
  IC50: 0.0528 µM
[39]
  IC50: 0.0313 µM
[40]
  IC50: > 0.1 µM
[41]
  IC50: > 0.1 µM
[42]
  IC50: > 0.1 µM

## CCC(=O)N1CCN(c2ccc(-n3c(=O)ccc4cnc5ccc(-c6cnc7ccccc7c6)cc5c43)cc2C(F)(F)F)CC1 [TORIN1]
[1]
  IC50: 0.262 µM
[2]
  IC50: > 1.2 µM
[3]
  IC50: 0.0423 µM
[4]
  IC50: 0.0364 µM
[5]
  IC50: > 1.2 µM
[6]
  IC50: 1.19 µM
[7]
  IC50: 0.512 µM
[8]
  IC50: 0.0488 µM
[9]
  IC50: > 1.2 µM
[10]
  IC50: 0.165 µM
[11]
  IC50: 0.0536 µM
[12]
  IC50: 0.119 µM
[13]
  IC50: > 1.2 µM
[14]
  IC50: 0.117 µM
[15]
  IC50: 0.0399 µM
[16]
  IC50: 0.0894 µM
[17]
  IC50: 0.554 µM
[18]
  IC50: 0.143 µM
[43]
  IC50: 0.302 µM
[19]
  IC50: 0.011 µM
[20]
  IC50: 0.543 µM
[21]
  IC50: 0.697 µM
[22]
  IC50: 0.507 µM
[23]
  IC50: 0.478 µM
[24]
  IC50: 0.167 µM
[25]
  IC50: 1.19 µM
[26]
  IC50: > 1.2 µM
[27]
  IC50: > 1.2 µM
[28]
  IC50: > 1.2 µM
[29]
  IC50: 0.303 µM
[30]
  IC50: 0.967 µM
[31]
  IC50: 0.189 µM
[32]
  IC50: > 1.2 µM
[33]
  IC50: 0.288 µM
[34]
  IC50: > 1.2 µM
[35]
  IC50: 0.107 µM
[36]
  IC50: 0.0637 µM
[37]
  IC50: 0.106 µM
[38]
  IC50: 0.0728 µM
[39]
  IC50: > 1.2 µM
[40]
  IC50: 0.118 µM
[41]
  IC50: > 1.2 µM
[42]
  IC50: > 1.2 µM

## CCc1nc(N)nc(N)c1-c1ccc(Cl)cc1 [PYRIMETHAMINE]
[1]
  IC50: 14.6 µM
[2]
  IC50: > 20 µM
[3]
  IC50: > 20 µM
[4]
  IC50: > 20 µM
[5]
  IC50: > 20 µM
[6]
  IC50: > 20 µM
[8]
  IC50: > 20 µM
[9]
  IC50: > 20 µM
[10]
  IC50: > 20 µM
[11]
  IC50: 11.4 µM
[12]
  IC50: > 20 µM
[13]
  IC50: > 20 µM
[14]
  IC50: > 20 µM
[15]
  IC50: > 20 µM
[16]
  IC50: > 20 µM
[17]
  IC50: > 20 µM
[18]
  IC50: > 20 µM
[43]
  IC50: > 20 µM
[19]
  IC50: 19.8 µM
[20]
  IC50: 6.93 µM
[21]
  IC50: > 20 µM
[22]
  IC50: > 20 µM
[23]
  IC50: > 20 µM
[24]
  IC50: > 20 µM
[25]
  IC50: > 20 µM
[26]
  IC50: > 20 µM
[44]
  IC50: > 20 µM
[27]
  IC50: > 20 µM
[28]
  IC50: > 20 µM
[29]
  IC50: > 20 µM
[30]
  IC50: > 20 µM
[31]
  IC50: > 20 µM
[32]
  IC50: > 20 µM
[33]
  IC50: 14.6 µM
[34]
  IC50: > 20 µM
[35]
  IC50: > 20 µM
[36]
  IC50: 16.5 µM
[37]
  IC50: 9.31 µM
[38]
  IC50: 19.5 µM
[39]
  IC50: 5.1 µM
[40]
  IC50: > 20 µM
[41]
  IC50: > 20 µM
[42]
  IC50: > 20 µM
